Data reported in ChEMBL document CHEMBL3098100, “Synthesis, characterization and anticancer screening of some novel piperonyl-tetrazole derivatives” (2014).
Calls of active or inactive are those of the source. The rule behind the calls is not given here.

What was measured:
MCF7 [1] = assay: Increase of CD44 mRNA expression in human ER positive MCF7 cells by RT-PCR analysis relative to control; assay type: functional
MCF7 [2] = assay: Reduction of BAX mRNA expression in human ER positive MCF7 cells by RT-PCR analysis relative to control; assay type: functional
MDA-MB-231 [3] = assay: Decrease of CD44 mRNA expression in human ER negative MDA-MB-231 cells by RT-PCR analysis relative to control; assay type: functional, cell-based
MDA-MB-231 [4] = assay: Decrease of BRAC1 mRNA expression in human ER negative MDA-MB-231 cells by RT-PCR analysis relative to control; assay type: functional
MDA-MB-231 [5] = assay: Reduction of BAX mRNA expression in human ER negative MDA-MB-231 cells by RT-PCR analysis relative to control; assay type: functional, cell-based
MCF7 [6] = assay: Decrease of BRAC1 mRNA expression in human ER positive MCF7 cells by RT-PCR analysis relative to control; assay type: functional, cell-based
HepG2 = assay: Cytotoxicity against human HepG2 cells assessed as growth inhibition at 10^-5 M after 48 hrs by MTT assay; assay type: functional; settings: HepG2, 48 h, read-out: GI
MCF7 [7] = assay: Decrease of p53 and KRT19 mRNA expression in human ER positive MCF7 cells by RT-PCR analysis relative to control; assay type: functional, cell-based

SMILES	fold change (FC) (MCF7 [1])	fold change (FC) (MCF7 [2])	Activity (MDA-MB-231 [3])	fold change (FC) (MDA-MB-231 [4])	Activity (MDA-MB-231 [5])	Activity (MCF7 [6])	inhibition of growth at 10 µM (HepG2)	Activity (MCF7 [7])	Activity (MCF7 [1])
COc1ccc(/C=N/NC(=O)Cn2nnnc2-c2ccc3c(c2)OCO3)c(OC)c1	2	>2	Active	2	Active	Active	0%	Active	
CCOc1ccccc1/C=N/NC(=O)Cn1nnnc1-c1ccc2c(c1)OCO2							0%		
O=C(Cn1nnnc1-c1ccc2c(c1)OCO2)N/N=C/c1ccco1							0%		
Cc1ccc(/C=N/NC(=O)Cn2nnnc2-c2ccc3c(c2)OCO3)cc1							0%		
O=C(Cn1nnnc1-c1ccc2c(c1)OCO2)N/N=C/c1cccs1							0%		
CCc1ccc(/C=N/NC(=O)Cn2nnnc2-c2ccc3c(c2)OCO3)cc1							0%		
O=C(Cn1nnnc1-c1ccc2c(c1)OCO2)N/N=C/c1cccc([N+](=O)[O-])c1		>2	Active	2	Active	Active	0%	Active	Active
O=C(Cn1nnnc1-c1ccc2c(c1)OCO2)N/N=C/c1ccccc1[N+](=O)[O-]	2	>2	Active	2	Active	Active	0%	Active	
O=C(Cn1nnnc1-c1ccc2c(c1)OCO2)N/N=C/c1ccc(Cl)cc1							0%		
CCOc1ccc(/C=N/NC(=O)Cn2nnnc2-c2ccc3c(c2)OCO3)cc1							0%		
O=C(Cn1nnnc1-c1ccc2c(c1)OCO2)N/N=C/c1ccccc1							0%		
O=C(Cn1nnnc1-c1ccc2c(c1)OCO2)N/N=C/c1ccccc1Cl		>2	Active	2	Active	Active	0%	Active	Active
O=C(Cn1nnnc1-c1ccc2c(c1)OCO2)N/N=C/c1ccc([N+](=O)[O-])cc1		>2	Active	2	Active	Active	0%	Active	Active
COc1ccc(/C=N/NC(=O)Cn2nnnc2-c2ccc3c(c2)OCO3)cc1							0%		
